Test results taken from ChEMBL document CHEMBL1121794, “Octanol-physiological buffer distribution coefficients of lipophilic amines by reversed-phase high-performance liquid chromatography and their correlation with biological activity” (J Med Chem, 1981).

Assays:
[1] = (§1) logD (measured by HPLC) (as log k'); type: ADME
Rattus norvegicus [2] = species on record: Rattus norvegicus; test: Log (1/ED50) was measured as histamine releasing activity in rat mast cells; log(1/ED50*10e-3).; type: functional
Rattus norvegicus [3] = species on record: Rattus norvegicus
[4] = (§2) Partition coefficient (logD7.4); conditions: octanol/water, pH 7.4
[5] = The compound was tested for its ability to inhibit Na+/K+ ATPase in rat brain.; type: tissue-based
Rattus norvegicus [6] = species on record: Rattus norvegicus; test: Apparent partition coefficient was measured as histamine releasing activity in rat mast cells.
[7] = octanol/water
[8] = not given; remark: listed apart in the source
Rattus norvegicus [9] = species on record: Rattus norvegicus; remark: listed apart in the source
[10] = octanol/water; remark: listed apart in the source
[11] = molecular target: Serum albumin (Bos taurus) (UniProt P02769); test: BSA binding (log K)
[12] = as §2; conditions: octanol/water, pH 7.4; remark: listed apart in the source
[13] = not given; remark: listed apart in the source
[14] = not given; remark: listed apart in the source
[15] = Dissociation constant (pKa); conditions: octanol/water, pH 7.4
[16] = (§3) Partition coefficient (logD) (HPLC); type: physicochemical; conditions: octanol/water
[17] = as §3; type: physicochemical; conditions: octanol/water; remark: listed apart in the source
Rattus norvegicus [18] = species on record: Rattus norvegicus; remark: listed apart in the source
physchem [19] = conditions: octanol/water
physchem [20] = conditions: octanol/water; remark: listed apart in the source
[21] = as §3; type: physicochemical; conditions: octanol/water; remark: listed apart in the source
[22] = not given; remark: listed apart in the source
[23] = not given; remark: listed apart in the source
[24] = not given; remark: listed apart in the source
[25] = as §1; type: ADME; remark: listed apart in the source
[26] = not given; remark: listed apart in the source
[27] = not given; remark: listed apart in the source
Rattus norvegicus [28] = species on record: Rattus norvegicus; remark: listed apart in the source
physchem [29] = conditions: octanol/water, pH 7.4

Row | Compound | Papp (Rattus norvegicus [3]) | pKa [4] | Log k' | Log k' [8] | Log 1/ED50 (Rattus norvegicus [9]) | logD [12] | Log k' [14] | logD [16] | also measured
1 | CN(C)CC/C=C1/c2ccccc2Sc2ccc(Cl)cc21 [CHLORPROTHIXENE] | 2.67 |  |  |  |  |  |  |  | Log k' [1]: 2.142; Histamine release (Rattus norvegicus [2]): 2.57
2 | OCCN1CCN(CCCN2c3ccccc3Sc3ccc(Cl)cc32)CC1 [PERPHENAZINE] |  | 7.8 | 1.749 | 2.287 | 2.63 |  |  |  | Activity [5]: 0.09; Papp (Rattus norvegicus [6]): 2.95; logD [7]: 1.473; logD [10]: 1.1; Log K [11]: 3.57
3 | CN(C)CCCN1c2ccccc2CCc2ccc(Cl)cc21 [CLOMIPRAMINE] | 2.8 |  | 1.593 | 2.072 | 2.22 | 3.24 | 1.041 |  | Log k' [13]: 1.479; pKa [15]: 9.5
4 | CN1CCN(CCCN2c3ccccc3Sc3ccc(C(F)(F)F)cc32)CC1 [TRIFLUOPERAZINE] |  | 8.1 | 2.58 | 3.076 |  |  |  | 1.77 | logD [17]: 1.96; Activity [5]: 1.69; Papp (Rattus norvegicus [18]): 3.9
5 | CC(=O)c1ccc2c(c1)N(CCCN1CCN(CCO)CC1)c1ccccc1S2 [ACETOPHENAZINE] |  |  | 0.808 | 1.301 | 2.12 | 2.62 |  |  | logD (physchem [19]): 0.728; logD (physchem [20]): 0.366
6 | COc1ccccc1 [ANISOLE] |  |  | 0.885 |  |  | 2.09 | 0.381 | 0.353 | logD [21]: 0.872; logD [22]: 2.086; Log k' [13]: 0.264; Log k' [23]: 0.332; Log k' [24]: 0.928
7 | CN(C)CCC=C1c2ccccc2CCc2ccccc21 [AMITRIPTYLINE] | 2.3 | 9.4 |  | 1.641 |  | 2.83 | 1.264 | 2.83 | Log k' [1]: 1.214; Log k' [25]: 0.753; Log k' [26]: 1.419; Log k' [27]: 1.279; Log 1/ED50 (Rattus norvegicus [28]): 1.85; logD (physchem [29]): 2.5
